# Reference: patent publication US6410528B1, “Morpholino ethers” (Glaxo Wellcome S.A., priority 1998, dated 2002)
# What was measured:
# C. albicans 4711E = experiment: in vitro antifungal screen, MIC by two-fold serial dilution; assay type: cell-based, Candida albicans
# Procedure: (§1) The antifungal activity of the compounds of formula (I) may be determined using conventional in vitro and in vivo screens. Thus, the in vitro evaluation of the anti-fungal activity of compounds of the invention was performed on liquid or solid medium by the anti-fungal two-fold serial dilution technique of determining the minimum inhibitory concentration (MIC) of anti-fungal agent that inhibited development of growth after 24 to 48 hours of incubation at 37° C. In practice, a series of agar plates or broth microdilution panels containing two-fold dilutions of anti-fungal agent tested were inoculated with a standard culture of a clinically relevant pathogen, for example, Candida albicans. The agar plates or broth microdulution panels were then examined for the presence or absence of growth of the fungus and the appropriate MIC values were noted.
# (§2) Compounds of formula (I) have been tested for anti fungal activity in a standard in vitro screen and the minimum inhibiting concentration (MIC; μg/ml) determined for each compound against a variety of clinically relevant pathogens.
# C. albicans CL-236 = experiment: as above; assay type: cell-based, Candida albicans
# Procedure: as §1, §2
# C. glabrata 2375E = experiment: as above; assay type: cell-based, Candida glabrata
# Procedure: as §1, §2
# C. glabrata 522 = experiment: as above; assay type: cell-based, Candida glabrata
# Procedure: as §1, §2
# C. parapsilosis 2372E = experiment: as above; assay type: cell-based, Candida parapsilosis
# Procedure: as §1, §2
# C. tropicalis 2808E = experiment: as above; assay type: cell-based, Candida tropicalis
# Procedure: as §1, §2
# [1] = system: C. pseudotropicalis 2371E; experiment: as above; assay type: cell-based, Candida pseudotropicalis
# Procedure: as §1, §2
# [2] = toxicity (LD50) in female mice; assay type: in vivo; conditions: iv
# Procedure: (§3) The compounds of the invention are essentially non-toxic at therapeutically useful levels. For example, the compound of Example 2 when admistered orally in a system candidiasis test (C.albicans 4711E) in mice, has an ED50 value of 9.0 mg/kg. The LD50 value for the compound of example 2, in female mice is >300 mg/kg iv.
# C.albicans 4711E = experiment: system candidiasis test in mice; assay type: in vivo; conditions: administered orally, system candidiasis test (C.albicans 4711E) in mice
# Procedure: The fungicidal activity of the compounds of formula (I) may also be determined in conventional tests in animals e.g. rats and mice. For example the lethal systems candidiasis test in mice.
# as §3
MIC (C. albicans 4711E),MIC (C. albicans CL-236),MIC (C. glabrata 2375E) [µg/mL],MIC (C. glabrata 522) [µg/mL],MIC (C. parapsilosis 2372E) [µg/mL],MIC (C. tropicalis 2808E),MIC [1],Compound,LD50 [2] [mg/kg],ED50 (C.albicans 4711E) [mg/kg]
≦0.001 μg/ml,≦0.001 μg/ml,1,1,>125,0.008 µg/mL,,"CC1CN(Cc2ccccc2)CC(OCC23CC4C(C)CCC4C4(C=O)CC2C=C(C(C)C)C43C(=O)O)O1 [Example 1i, [1R-(1α,3aβ,4β,4aβ,7β,7aα,8aβ)]8a-[(2R,6R)-(4-benzyl-6-methylmorpholin-2-yl)-oxymethyl]-4-formyl-4,4a,5,6,7,7a,8,8a-octahydro-7-methyl-3-(1-methylethyl)-1,4-methano-s-indacene-3a(1H)-carboxylic acid]",,
≦0.001 μg/ml,0.015 µg/mL,4,4,>125,0.06 µg/mL,0.004 µg/mL,"CC1CN(C2CC2)CC(OCC23CC4C(C)CCC4C4(C=O)CC2C=C(C(C)C)C43C(=O)[O-])O1.[K+] [Example 4, [1R-(1α,3aβ,4β,4aβ,7β,7aα,8aβ)]8a-[(2R,6R)-(4-cyclopropyl-6-methyl-morpholin-2-yl)-oxymethyl]-4-formyl-4,4a,5,6,7,7a,8,8a-octahydro-7-methyl-3-(1-methylethyl)-1,4-methano-s-indacene-3a(1H)-carboxylic acid, potassium salt]",,
0.008 µg/mL,0.015 µg/mL,0.25,0.5,16,0.06 µg/mL,0.015 µg/mL,"C#CCN1CC(C)OC(OCC23CC4C(C)CCC4C4(C=O)CC2C=C(C(C)C)C43C(=O)O)C1 [Example 6, [1R-(1α,3aβ,4β,4aβ,7β,7aα,8aβ)]8a-[(2R,6R)-(4-(2-propynyl)-6-methyl-morpholin-2-yl)-oxymethyl]-4-formyl-4,4a,5,6,7,7a,8,8a-octahydro-7-methyl-3-(1-methylethyl)-1,4-methano-s-indacene-3a(1H)-carboxylic acid]",,
≦0.001 μg/ml,0.008 µg/mL,0.25,0.25,4,0.008 µg/mL,≦0.001 μg/ml,"C=C(Br)CN1CC(C)OC(OCC23CC4C(C)CCC4C4(C=O)CC2C=C(C(C)C)C43C(=O)O)C1 [Example 7, [1R-(1α,3aβ,4β,4aβ,7β,7aα,8aβ)]8a-[(2R,6R)-(4-(2-bromoallyl)-6-methyl-morpholin-2-yl)-oxymethyl]-4-formyl-4,4a,5,6,7,7a,8,8a-octahydro-7-methyl-3-(1-methylethyl)-1,4-methano-s-indacene-3a(1H)-carboxylic acid]",,
≦0.001 μg/ml,≦0.001 μg/ml,0.03,0.03,1,≦0.001 μg/ml,≦0.001 μg/ml,"C=C(Cl)CN1CC(C)OC(OCC23CC4C(C)CCC4C4(C=O)CC2C=C(C(C)C)C43C(=O)O)C1 (stereo not drawn) [Example 8, [1R-(1α,3aβ,4β,4aβ,7β,7aα,8aβ)]8a-[(2R6R)-(4-(2-chloroallyl)-6-methyl-morpholin-2-yl)-oxymethyl]-4-formyl-4,4a,5,6,7,7a,8,8a-octahydro-7-methyl-3-(1-methylethyl)-1,4-methano-s-indacene-3a(1H)-carboxylic acid]",,
0.03 µg/mL,0.06 µg/mL,1,1,16,0.06 µg/mL,0.03 µg/mL,"CC1CN(CC=C(F)F)CC(OCC23CC4C(C)CCC4C4(C=O)CC2C=C(C(C)C)C43C(=O)O)O1 [Example 10, [1R-(1α,3aβ,4β,4aβ,7β,7aα,8aβ)]8a-[(2R,6R)-(4-(3,3-difluoroallyl)-6-methyl-morpholin-2-yl)-oxymethyl]-4-formyl-4,4a,5,6,7,7a,8,8a-octahydro-7-methyl-3-(1-methylethyl)-1,4-methano-s-indacene-3a(1H)-carboxylic acid]",,
≦0.001 μg/ml,≦0.001 μg/ml,0.25,0.25,1,0.008 µg/mL,≦0.001 μg/ml,C=C(C)CN1C[C@H](OC[C@@]23C[C@@H]4[C@H](C)CC[C@H]4[C@@]4(C=O)C[C@@H]2C=C(C(C)C)[C@@]34C(=O)O)O[C@H](C)C1 [Example 12],,
≦0.001 μg/ml,0.004 µg/mL,0.12,0.12,8,0.015 µg/mL,≦0.001 μg/ml,"C=C=CCN1CC(C)OC(OCC23CC4C(C)CCC4C4(C=O)CC2C=C(C(C)C)C43C(=O)O)C1 [Example 14, [1R-(1α,3aβ,4β,4aβ,7β,7aα,8aβ)]8a-[(2R,6R)-4-(2,3-butadienyl)-6-methyl-morpholin-2-yl)-oxymethyl]-4-formyl-4,4a,5,6,7,7a,8,8a-octahydro-7-methyl-3-(1-methylethyl)-1,4-methano-s-indacene-3a(1H)-carboxylic acid]",,
≦0.001 μg/ml,≦0.001 μg/ml,0.25,0.25,2,0.008 µg/mL,≦0.001 μg/ml,"COc1ccc(CN2CC(C)OC(OCC34CC5C(C)CCC5C5(C=O)CC3C=C(C(C)C)C54C(=O)O)C2)cc1 [Example 16, [1R-(1α,3aβ,4β,4aβ,7β,7aα,8β)]8a-[(2R,6R)4-(4-methoxybenzyl)-6-methyl-morpholin-2-yl)-oxymethyl]-4-formyl-4,4a,5,6,7,7a,8,8a-octahydro-7-methyl-3-(1-methylethyl)-1,4-methano-s-indacene-3a(1H)-carboxylic acid]",,
0.03 µg/mL,0.25 µg/mL,8,8,>125,1 µg/mL,,"CON1CC(C)OC(OCC23CC4C(C)CCC4C4(C=O)CC2C=C(C(C)C)C43C(=O)O)C1 [Example 18, 1R-(1α,3aβ,4β,4aβ,7β,7aα,8aβ)]8a-[(2R,6R)-6-methyl-4-methoxy-morpholin-2-yl)-oxymethyl]-4-formyl-4,4a,5,6,7,7a,8,8a-octahydro-7-methyl-3-(1-methylethyl)-1,4-methano-s-indacene-3a(1H)-carboxylic acid]",,
0.25 µg/mL,0.25 µg/mL,0.5,0.5,>125,0.5 µg/mL,0.12 µg/mL,"C=CCN1C[C@H](OC[C@@]23C[C@@H]4[C@H](C)CC[C@H]4[C@@]4(C#N)C[C@@H]2C=C(C(C)C)[C@@]34C(=O)O)O[C@H](C)C1 [Example 25, [1R-(1α,3aβ,4β,4aβ,7β,7aα,8aβ)]8a-[(2R,6R)-(4-allyl-6-methyl-morpholin-2-yl)-oxymethyl]-4-cyano4,4a,5,6,7,7a,8,8a-octahydro-7-methyl-3-(1-methylethyl)-1,4-methano-s-indacene-3a(1H)-carboxylic acid]",,

Compound,MIC (C. albicans 4711E),MIC (C. albicans CL-236),MIC (C. glabrata 2375E) [µg/mL],MIC (C. glabrata 522) [µg/mL],MIC (C. parapsilosis 2372E) [µg/mL],MIC (C. tropicalis 2808E),MIC [1],LD50 [2] [mg/kg],ED50 (C.albicans 4711E) [mg/kg]
"C=CCN1CC(C)OC(OCC23CC4C(C)CCC4C4(C=O)CC2C=C(C(C)C)C43C(=O)O)C1 [Example 2, [1R-(1α,3aβ,4β,4aβ,7β, 7aα,8aβ)]8a-[(2R,6R)-(4-allyl-6-methyl-morpholin-2-yl)-oxymethyl]-4-formyl-4,4a,5,6,7,7a,8,8a-octahydro-7-methyl-3-(1-methylethyl)-1,4-methano-s-indacene-3a(1H)-carboxylic acid]",0.008 µg/mL,0.03 µg/mL,0.5,0.5,>125,0.03 µg/mL,0.004 µg/mL,> 300,9.0
